In patent EP1030659B1 (Warner-Lambert Company LLC, priority 1997, dated 1999):
Read-outs that look alike come from different tables or passages of the source.

What was measured:
[1] = Rat dosage calculated from the dog dosage that raises MAP by 10%; assay type: in vivo; details: calculated from the dog dosage by proportionately decreasing for the lesser weight of the rat; absolute dosage
Protocol: (§1) Nasal airway pressure was measured using a Validyne pressure transducer (Validyne Engineering, Northridge, CA) with a 2.25 cm H2O range membrane connected to a multipen recorder (Grass Instruments, Quincy, MA). Air was passed through an in-line direct measure flow meter (Gilmont Instruments, Barrington, IL) connected to the nasal opening cannula. Pressure was measured in the line with a constant flow rate (150 ml/min) of air. Drugs were directly injected into the jugular vein using a 30 gauge needle. All injections were of a constant 0.1 ml volume. In the congestion challenged groups congestion was achieved by an intranasal administration of histamine (50 mM, 0.02 ml/nostril). The histamine was expelled after 2 minutes with a short nasal cannula airflow and subsequent enantiomeric drug doses were directly injected into the jugular vein. The dosage chosen for each drug was the amount needed to increase the mean arterial pressure (MAP) of the animal by 10%; this dosage served as the "100%" dose for the initial nasal airway studies. […] The dosage required for rats was calculated by proportionately adjusting the experimentally determined dog dosage to account for the lesser weight of the rats.

[2] = Nasal airway pressure (decongestant activity) in normal and histamine-challenged rats; assay type: in vivo, Sprague Dawley rats; details: for Mean Decrease in Nasal Airway Pressure / effect on normal airway decongestion (in words): rats; for Mean Decrease in Nasal Airway Pressure: mean ± standard error; for effect on normal airway decongestion (in words): 75% dose; for Post Drug nasal airway pressure: 100% dose into the jugular vein; for %Change in nasal airway pressure: 100% dose
[3] = target: α1-receptors; test: Alpha-1 binding, 3H-prazocin, canine lung membranes; set-up: species or system mongrel dogs; details: for Ki: Ki = IC50 / 1 + I/Kd, Kd from saturation analysis, unit inferred
[4] = Dosage required to raise mean arterial pressure (MAP) by 10% in dogs; assay type: in vivo; details: experimentally determined
Protocol: as §1

[5] = tested on: Male Swiss-Webster mice; test: H1 antihistamine (triprolidine) interaction studies, locomotor activity; details: for interaction with triprolidine pretreatment (central nervous system stimulation, horizontal movement): pretreatment with 0.01, 0.1, or 1.0 mg/kg triprolidine 20 minutes before the sympathomimetic
[6] = tested on: Male Swiss-Webster mice; test: Locomotor stimulant effects (horizontal locomotor activity); assay type: in vivo; details: i.p.; for ED50: Mus musculus, ip, dose resulting in ½ the maximal stimulant effect, read-out: Stimulation Potency (ED50); for locomotor stimulant effects, time course (in words): 2-hour session; for Stimulation Efficacy: ratio of the maximal stimulant effect of the test compound to the maximal effect of (+)-amphetamine
[7] = Mean arterial blood pressure after the 75% dose in rats
[8] = target: α2-receptors; test: Alpha-2 binding, p-125iodoclonidine, canine brain (frontal cortex) membranes; set-up: species or system mongrel dogs; details: for Ki: Ki = IC50 / 1 + I/Kd, Kd from saturation analysis, unit inferred; for IC50: inhibition of 50% of specific p-iodoclonidine binding, mean of several test samples; for Kd: canine cerebral cortex membranes
Protocol: • PULMONARY ALPHA-1 AND BETA-2 RECEPTORS. The lungs of mongrel dogs were separated from cartilaginous airways and major blood vessels, weighed, chopped and placed into 10 volumes of ice-cold buffered sucrose (50 mM Tris-HCl, pH 7.4, 1 mM EGTA, 0.32 M sucrose). The tissue was then homogenized in a type PT10/35, size 89/PTA 20S, Polytron tissue homogenizer (Kinematica, Westbury, NY). The homogenate was filtered through two layers of cheesecloth, and the filtrate was dounced three times using a 55 ml Con-Torque Potter homogenizer (Eberbach Corporation, Ann Arbor, Ml). […] The supematant was re-centrifuged at 30,000 x g for 30 minutes at 4°C and the resulting pellet was washed and resuspended in 10 volumes of Tris buffer (50 mM Tris HCL, pH 7.4, 1 mM EGTA) and incubated at 37°C for 30 minutes in a shaking water bath. The suspension was centrifuged at 4°C at 30,000 x g for 30 minutes and the resulting pellet washed in 10 volumes of Tris buffer for a total of three additional centrifugations and washes. […] Protein concentration was determined by the Lowry method and the final suspension was adjusted to 10 mg of protein/ml, aliquoted and stored at -90°C. Particulates were also prepared for β2 receptors using the identical procedure except the final protein concentration was adjusted to 0.1 mg/ml. • BRAIN ALPHA-2 RECEPTORS: Membranes of mongrel dogs were harvested from the canine frontal cortex and prepared as described above with respect to the lungs, except that the final membrane protein concentration was adjusted to 0.5 mg/ml.
Nonspecific binding was determined for each concentration point in separate incubations using 10 µM phentolamine. Each experimental point was determined in triplicate. […] All binding assay incubations were terminated by rapid dilution with 2 ml of ice-cold wash buffer (50 mM Tris-HCl, pH 7.4) and filtration through FP-100 Whatman GF/B fired filters (Biomedical Research & Development Lab, Gaithersburg, MD) using a Brandel receptor-binding harvester. The filters were washed twice more with 4 ml of wash buffer and then added to 6 ml Cytoscint (ICN, Costa Mesa CA) for liquid scintillation counting (Barnes et al., 23 MOL. PHARMACOL. 570-75 (1983)). […] Nonspecific binding was determined in separate incubations in the presence of 10 µM phentolamine. The final concentration of p-iodoclonidine was 44-45 pM in competition studies and between 50 pM and 10 nM in saturation experiments. Bound and free p-^125 iodoclonidine were separated and the bound quantitated as described below for the ICYP assays. […] Nonspecific binding was determined in separate incubations in the presence of 2 µM d,I-propranolol. Each experimental point was determined in triplicate. […] Incubations were terminated as described above for the α1 assays. Filters were placed into polyethylene tubes and the bound ligand was determined by gamma spectrometry(Sano et al., 52 LIFE SCIENCES 1063-70 (1993)).
All data were analyzed with the aid of microcomputer nonlinear curve fitting programs (PRISM 2.0, Graphpad Software, San Diego CA).
The receptors resident in each of the three membrane preparations were evaluated by standard saturation analysis following the addition of increasing concentrations of the appropriate radioligand.
The radioligand added for subsequent α2-displacement assays was adjusted to evaluate only the high affinity receptor. Contributions from p-iodoclonidine binding to imidazoline receptors in the α2- displacement assay was evaluated with epinephrine.

[9] = target: T1, β2-receptors (Canis lupus familiaris, UniProt P54833); test: Beta-2 binding, 125iodocyanopindolol (ICYP), canine lung membranes; set-up: species or system mongrel dogs
T1 construct: The lungs of mongrel dogs were separated from cartilaginous airways and major blood vessels; from tissue; host or cells: mongrel dog lung membranes
T1 sequence (P54833 whole entry): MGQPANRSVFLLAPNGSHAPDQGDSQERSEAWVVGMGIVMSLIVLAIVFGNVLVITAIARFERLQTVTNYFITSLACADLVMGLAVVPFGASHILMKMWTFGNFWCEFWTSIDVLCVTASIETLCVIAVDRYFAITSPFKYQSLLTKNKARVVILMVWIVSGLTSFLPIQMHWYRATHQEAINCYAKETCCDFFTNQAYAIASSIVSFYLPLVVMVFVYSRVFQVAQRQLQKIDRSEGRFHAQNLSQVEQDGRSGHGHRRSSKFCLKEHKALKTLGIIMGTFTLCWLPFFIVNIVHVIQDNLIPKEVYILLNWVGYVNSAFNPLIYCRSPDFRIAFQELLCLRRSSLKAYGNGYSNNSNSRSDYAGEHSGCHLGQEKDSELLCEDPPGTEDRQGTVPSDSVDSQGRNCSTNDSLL

[10] = 5% of the dose that increased canine resting mean arterial pressure 10%
[11] = 10% of the dose that increased canine resting mean arterial pressure 10%
[12] = 25% of the dose that increased canine resting mean arterial pressure 10%
[13] = 50% of the dose that increased canine resting mean arterial pressure 10%
[14] = histamine-challenged rats (50 mM, 0.02 ml/nostril)
[15] = histamine-challenged rats, relative to post-histamine level
[16] = non-histamine-challenged rats, relative to control

SMILES	Dosage of Enantiomer, Rat [1] [µg]	Mean Decrease in Nasal Airway Pressure [2, 10]	Mean Decrease in Nasal Airway Pressure [2, 11]	Mean Decrease in Nasal Airway Pressure [2, 12]	Mean Decrease in Nasal Airway Pressure [2, 13]	Post Drug nasal airway pressure [2, 14] [mm water]	%Change in nasal airway pressure [2, 15] [%]	Post Drug nasal airway pressure ([2]; non-histamine-challenged rats) [mm H2O]	%Change in nasal airway pressure [2, 16] [%]	Ki [3] [nM]	Dosage of Enantiomer, Dog: dosage required to raise MAP by 10% [4] [µg/kg]	interaction with triprolidine pretreatment (central nervous system stimulation, horizontal movement) [5]	ED50 [6] [mg/kg]	locomotor stimulant effects, time course (in words) [6]	Stimulation Efficacy [6]	Ki [8] [nM]	IC50 [8] [nM]	other results
CN[C@@H](C)[C@H](O)c1ccccc1 [(-)-ephedrine]	[…]	[…]	-2.5 ± 1.5	[…]	[…]	6.4 ±0.6	-21.8 ±3.5	6 ± 0.5	[…]	47000	[…]	increased horizontal movement	[…]	Dose dependent increases in locomotor activity of slower onset and longer duration	[…]	[…]	[…]	effect on normal airway decongestion (in words) [2]: approximately the same efficacious effect on normal airway decongestion; increase in blood pressure (in words) [7]: slightly greater (though significant) increase in blood pressure than (+)-ephedrine
CC(N)Cc1ccccc1 (single isomer, unassigned; (+)) [(+)-amphetamine]	–	–	–	–	–	–	–	–	–	–	–	–	1.3	dose- and time-dependent increase in the distance traversed	–	–	–	–
CNC[C@H](O)c1cccc(O)c1 [(-)-phenylephrine]	3 to 5	-1.6 ± 0.9	-4.8 ± 0.8	-12.1 ± 2.3	-5.2 ± 1.6	10.5 ±2.1	-22.3 ±8.5	4 ± 0.2	-20.3 ± 4.3	3000	10	–	–	–	0	–	–	IC50 [3]: 7000 nM
Clc1cc(I)cc(Cl)c1NC1=NCCN1 [p-iodoclonidine]	–	–	–	–	–	–	–	–	–	–	–	–	–	–	–	–	–	Kd ([8]; Saturation Analysis, read-out: Kd 1 (high affinity)): 0.15 nM; Kd ([8]; Saturation Analysis, read-out: Kd 2 (high affinity)): 3.01 nM; Kd ([8]; Scatchard Analysis, read-out: Kd 1 (high affinity)): 0.15 nM; Kd ([8]; Scatchard Analysis, read-out: Kd 2 (low affinity)): 0.87 nM
CC(C)(C)NCC(O)COc1cccc2[nH]c(C#N)c([125I])c12 (stereo not shown) [ICYP, iodocyanopindolol]	–	–	–	–	–	–	–	–	–	–	–	–	–	–	–	–	–	Bmax ([9]; Saturation Analysis, Run 1): 149 femtomoles per mg protein; Bmax ([9]; Saturation Analysis, Run 2): 142 femtomoles per mg protein; Bmax ([9]; Saturation Analysis, Summary): 146 femtomoles per mg protein; Bmax ([9]; Scatchard Analysis, Run 1): 150 femtomoles per mg protein; Bmax ([9]; Scatchard Analysis, Run 2): 139 femtomoles per mg protein; Bmax ([9]; Scatchard Analysis, Summary): 145 femtomoles per mg protein
CN[C@@H](C)[C@@H](O)c1ccccc1 [(+)-pseudoephedrine]	60	[…]	[…]	[…]	[…]	6.1 ±1.5	-36.7 ±2.7	7 ± 0.9	[…]	[…]	[…]	increased horizontal movement	12.6	Little or no stimulant effects	[…]	[…]	[…]	–
Cc1ccc(/C(=C\CN2CCCC2)c2ccccn2)cc1 [triprolidine]	–	–	–	–	–	–	–	–	–	–	–	–	–	–	–	–	–	effect on horizontal distance, triprolidine alone ([5]; 0.25 to 25 mg/kg, injected immediately prior to testing, 2-hour test period): failed to affect horizontal distance; effect on locomotion, triprolidine alone ([5]; 50 and 100 mg/kg, beginning within 10 minutes, lasting 30 to 40 minutes): Dose-dependent depression of locomotion
CC(C)(C)NCC(O)COc1cccc2[nH]c(C#N)c(I)c12 (stereo not shown) [ICYP, iodocyanopindolol]	–	–	–	–	–	–	–	–	–	–	–	–	–	–	–	–	–	Kd ([9]; Saturation Analysis, Run 1): 0.0096 nM; Kd ([9]; Saturation Analysis, Run 2): 0.0093 nM; Kd ([9]; Saturation Analysis, Summary): 0.0095 nM; Kd ([9]; Scatchard Analysis, Run 1): 0.0099 nM; Kd ([9]; Scatchard Analysis, Run 2): 0.0078 nM; Kd ([9]; Scatchard Analysis, Summary): 0.0089 nM
CN[C@H](C)[C@@H](O)c1ccccc1 [(+)-ephedrine]	60	[…]	[…]	[…]	[…]	[…]	[…]	7 ± 0.9	[…]	40000	[…]	No such central nervous system stimulation	84.9	small increase in locomotor activity	0.25	[…]	[…]	effect on normal airway decongestion (in words) [2]: approximately the same efficacious effect on normal airway decongestion
CNC[C@H](O)c1ccc(O)c(O)c1 [Epinephrine, epinephrine]	–	–	–	–	–	–	–	–	–	–	–	–	–	–	–	–	–	displacement of bound p-iodoclonidine ([8]; check for binding to imidazoline receptors in the α2-displacement assay): easily displaced all bound p-iodoclonidine
